We go through ten compounds from PMC7217150, “Synthesis, Modification, and Biological Evaluation of a Library of Novel Water‐Soluble Thiopyridone‐Based Organometallic Complexes and Their Unexpected (Biological) Behavior” (Chemistry (Weinheim an Der Bergstrasse, Germany), 2020).

Broadly, the IC50 is the concentration that gives 50% inhibition. Lower therefore signals inhibition by little substance.

A value given as a limit tells only on which side of the number the result lay.

Common to all, as to type: cell-based, human
The subject of one test is A549. Description: MTT cytotoxicity assay, monolayer culture. Conditions: exposure time 96 h, means ± SDs. An excerpt: (§1) A549 (non‐small cell lung carcinoma), SW480 and HCT‐116 (both colon carcinoma) were kindly provided by Brigitte Marian, Institute of Cancer Research, Department of Medicine I, Medical University of Vienna, Austria. The cell line CH1/PA‐1 (ovarian teratocarcinoma) was kindly provided by Lloyd R. Kelland (CRC Centre for Cancer Therapeutics, Institute of Cancer Research, Sutton, UK). All cell culture media (including supplements) and reagents were obtained from Sigma–Aldrich, and all plasticware from StarLab, unless indicated otherwise.
For orientation: Tetrazolium dyes change colour on reduction, which living cells bring about.

Test [1] has as its system CH1/PA‐1. Description: MTT cytotoxicity assay, monolayer culture. Conditions: CH1/PA‐1, MTT assay, exposure time 96 h, means ± SDs.
Description: as §1

The test system of test [2] is SW480. Nature of the test: MTT cytotoxicity assay, monolayer culture. As to conditions: for IC50: SW480, MTT assay, exposure time 96 h, means ± SDs.
Description: as §1

In test [3] the test system is CH1/PA‐1. Description: Cell cycle distribution, flow cytometry with propidium iodide. As to conditions: for Cell cycle distribution G1, % / Cell cycle distribution G2/M, % / Cell cycle distribution S, %: 24 h, mean ± SD; for Relative change in cell cycle distribution G1, % / Relative change in cell cycle distribution G2/M, % / Relative change in cell cycle distribution S, %: difference to untreated control. The protocol:
(§2) The influence of two ligands, as well as seven complexes on cell cycle distribution was tested in two of the cancer cell lines (SW480, CH1/PA‐1) by means of flow cytometry. The cell cycle distribution (G1, S, G2/M phase in %; Table S37) was investigated upon DNA staining with propidium iodide.
(§3) CH1/PA‐1 and SW480 cells were harvested by trypsinization, 8×10^4 and 1.2×10^5 cells per well were seeded into 12‐well plates, respectively. The cells were allowed to attach and resume proliferation for 24 h after the seeding. […] After continuous exposure for 24 h at 37 °C and under 5 % CO2, the cells were harvested by trypsinization and centrifuged at 300 g for 3 min. The cells were washed with PBS (1 mL) and resuspended in propidium iodine (PI) containing HSF buffer (600 μL; 0.1 % Triton X‐100, 0.1 % sodium citrate, 50 μg mL^−1 PI in PBS). After incubation overnight at 4 °C in the dark, 5×10^3 cells were measured by flow cytometry with a Millipore Guava easyCyte 8HT instrument (Luminex, USA). Data were evaluated by means of FlowJo software (Tree Star) using Watson Pragmatic algorithms.60 The fitting of the curve was chosen to keep the root mean square error between 1.0 and 2.0, alongside with good fitting visual model.
Background: Flow cytometry measures light scatter and fluorescence of single cells or particles in a stream.

In test [4] the test system is SW480. The test is described as above. As to conditions: for Cell cycle distribution G1, % / Cell cycle distribution G2/M, % / Cell cycle distribution S, %: 24 h, mean ± SD; for Relative change in cell cycle distribution G1, % / Relative change in cell cycle distribution G2/M, % / Relative change in cell cycle distribution S, %: difference to untreated control. The procedure: as §2, §3

As for `Cc1c(O)c(=S)ccn1-c1ccccc1` [Compound 2 b, 3‐hydroxy‐2‐methyl‐1‐phenylpyridine‐4(1H)‐thione], the figures for the IC50 in the test with A549 (Homo sapiens), in the test on CH1/PA‐1 [1] (Homo sapiens) and in the test with SW480 [2] (Homo sapiens) were 1600 ± 1200 nM, 520 ± 50 nM and 520 ± 30 nM, respectively.

Turning to `Cc1c(O)c(=S)ccn1Cc1ccccc1` [Compound 2 c, 3‐hydroxy‐2‐methyl‐1‐benzylpyridine‐4(1H)‐thione], the IC50 in the test on A549 (Homo sapiens) amounted to 790 ± 120 nM; in the test with SW480 [2] (Homo sapiens), 280 ± 40 nM. Also, the “Cell cycle distribution G1, %” value was determined as 43 ± 16% with CH1/PA‐1 [3] (CH1/PA-1, 2.5 µM); 31 ± 5% in the test with CH1/PA‐1 [3] (CH1/PA-1, 5 µM); 31 ± 6% in the test on CH1/PA‐1 [3] (CH1/PA-1, 10 µM); 30 ± 1% in the test with SW480 [4] (SW480, 5 µM); 27 ± 3% in the test with SW480 [4] (SW480, 10 µM); 34 ± 5% with SW480 [4] (SW480, 20 µM). Moreover, the “Cell cycle distribution G2/M, %” value in the test on CH1/PA‐1 [3] (CH1/PA-1, 2.5 µM) is 19 ± 9%; in the test on CH1/PA‐1 [3] (CH1/PA-1, 5 µM), 32 ± 4%; with CH1/PA‐1 [3] (CH1/PA-1, 10 µM), 26 ± 10%; in the test on SW480 [4] (SW480, 5 µM), 31 ± 3%; in the test on SW480 [4] (SW480, 10 µM), 27 ± 3%; in the test with SW480 [4] (SW480, 20 µM), 17 ± 3%. Besides, the “Cell cycle distribution S, %” value in the test with CH1/PA‐1 [3] (CH1/PA-1, 2.5 µM) is on record as 37 ± 5%; with CH1/PA‐1 [3] (CH1/PA-1, 5 µM), 37 ± 2%; in the test with CH1/PA‐1 [3] (CH1/PA-1, 10 µM), 43 ± 8%; with SW480 [4] (SW480, 5 µM), 39 ± 2%; in the test on SW480 [4] (SW480, 10 µM) it was 45 ± 2%; with SW480 [4] (SW480, 20 µM) it was 49 ± 1%. In addition, the “Relative change in cell cycle distribution G1, %” value is reported as 3% in the test on CH1/PA‐1 [3] (CH1/PA-1, 2.5 µM); -9% with CH1/PA‐1 [3] (CH1/PA-1, 5 µM); -9% in the test with CH1/PA‐1 [3] (CH1/PA-1, 10 µM); -18% with SW480 [4] (SW480, 5 µM); -21% in the test on SW480 [4] (SW480, 10 µM); -14% with SW480 [4] (SW480, 20 µM). In addition, the “Relative change in cell cycle distribution G2/M, %” value in the test with CH1/PA‐1 [3] (CH1/PA-1, 2.5 µM) is -5%; in the test with CH1/PA‐1 [3] (CH1/PA-1, 5 µM), 8%; in the test with CH1/PA‐1 [3] (CH1/PA-1, 10 µM) it was 2%; with SW480 [4] (SW480, 5 µM) it was 12%; with SW480 [4] (SW480, 10 µM), 8%; in the test with SW480 [4] (SW480, 20 µM), -2%. Moreover, the “Relative change in cell cycle distribution S, %” value in the test on CH1/PA‐1 [3] (CH1/PA-1, 2.5 µM) is given as 1%; in the test on CH1/PA‐1 [3] (CH1/PA-1, 5 µM) it was 1%; in the test with CH1/PA‐1 [3] (CH1/PA-1, 10 µM), 7%; in the test on SW480 [4] (SW480, 5 µM), 6%; in the test on SW480 [4] (SW480, 10 µM), 12%; in the test with SW480 [4] (SW480, 20 µM), 16%. In the test with CH1/PA‐1 [3] (CH1/PA‐1 cells), the “effect on cell cycle distribution, in words” value is reported as “little effect”. In addition, the “decrease in G1 phase” value with CH1/PA‐1 [3] (CH1/PA‐1 cells, 10 μM) worked out at 9%. Moreover, the “decrease in G1” value in the test with SW480 [4] (SW480 cells, 2.5 μM) stood at 18%.

Consider `Cc1c(O)c(=S)ccn1-c1cccc2ccccc12` [Compound 2 d, 3‐hydroxy‐2‐methyl‐1‐(naphthalene‐1‐yl)pyridine‐4(1H)‐thione], for which the results for the IC50 in the test with A549 (Homo sapiens), in the test on CH1/PA‐1 [1] (Homo sapiens) and with SW480 [2] (Homo sapiens) were 1600 ± 100 nM, 620 ± 80 nM and 350 ± 20 nM, respectively.

For the compound `Cc1c([O-])c(=S)ccn1-c1ccccc1.Cc1ccc(C(C)C)cc1.[Cl-].[Ru+2]` [Compound 3 b, Chlorido[2‐methyl‐3‐(oxo‐κO)‐1‐phenylpyridine‐4(1H)‐thionato‐κS](η^6‐p‐cymene)ruthenium(II)], the results for the IC50 in the test with A549, in the test on CH1/PA‐1 [1] and with SW480 [2] were 2400 ± 800 nM, 940 ± 80 nM and 2800 ± 100 nM, respectively.

With `Cc1c([O-])c(=S)ccn1-c1cccc2ccccc12.Cc1ccc(C(C)C)cc1.[Cl-].[Ru+2]` [Compound 3 d, Chlorido[2‐methyl‐1‐(naphthalene‐1‐yl)‐3‐(oxo‐κO)‐pyridine‐4(1H)‐thionato‐κS](η^6‐p‐cymene)ruthenium(II)], the IC50 in the test with A549 is 2100 ± 300 nM; in the test with CH1/PA‐1 [1], 1600 ± 300 nM; in the test on SW480 [2], 4000 ± 300 nM.

As to `Cc1c([O-])c(=S)ccn1C.Cc1ccc(C(C)C)cc1.[Cl-].[Os+2]` [Compound 4 a, [Chlorido[1,2‐dimethyl‐3‐(oxo‐κO)‐pyridine‐4(1H)‐thionato‐κS](η^6‐p‐cymene)osmium(II)]], the IC50 with A549 was more than 200000 nM; with CH1/PA‐1 [1], 112000 ± 27000 nM; with SW480 [2], more than 200000 nM.

Take `Cc1c([O-])c(=S)ccn1-c1cccc2ccccc12.Cc1ccc(C(C)C)cc1.[Cl-].[Os+2]` [Compound 4 d, Chlorido[2‐methyl‐1‐(naphthalene‐1‐yl)‐3‐(oxo‐κO)‐pyridine‐4(1H)‐thionato‐κS](η^6‐p‐cymene)osmium(II)]: the values for the IC50 in the test with A549, in the test with CH1/PA‐1 [1] and in the test with SW480 [2] were 2400 ± 300 nM, 1300 ± 300 nM and 7700 ± 300 nM, respectively. The “IC50 relative to the osmium thiomaltol complex” value in the test with SW480 [2] (SW480 cells) is recorded as “four times higher”.

Regarding `COc1cc([C@@H]2c3cc4c(cc3[C@@H](O[C@@H]3O[C@@H]5CO[C@@H](C)O[C@H]5[C@H](O)[C@H]3O)[C@H]3COC(=O)[C@H]23)OCO4)cc(OC)c1O` [Etoposide, reference compound], in the test with CH1/PA‐1 [3] (CH1/PA-1, 0.25 µM), the “Cell cycle distribution G1, %” value came to 8 ± 5%; the “Cell cycle distribution S, %” value was 15 ± 4%; the “Relative change in cell cycle distribution G1, %” value is listed as -32%; the “Relative change in cell cycle distribution G2/M, %” value worked out at 53%. The “Relative change in cell cycle distribution S, %” value in the test with CH1/PA‐1 [3] (CH1/PA-1, 0.25 µM) is recorded as -21%. Further, in the test with CH1/PA‐1 [3] (CH1/PA-1, 0.5 µM), the “Cell cycle distribution G1, %” value amounted to 4 ± 1%; the “Cell cycle distribution G2/M, %” value is listed as 85 ± 5%; the “Cell cycle distribution S, %” value is 10 ± 3%; the “Relative change in cell cycle distribution G1, %” value is -36%. Besides, the “Relative change in cell cycle distribution G2/M, %” value in the test with CH1/PA‐1 [3] (CH1/PA-1, 0.5 µM) turned out to be 61%. Besides, in the test with CH1/PA‐1 [3] (CH1/PA-1, 1 µM), the “Cell cycle distribution G1, %” value is given as 3 ± 3%; the “Cell cycle distribution G2/M, %” value was 87 ± 6%; the “Cell cycle distribution S, %” value is given as 10 ± 5%; the “Relative change in cell cycle distribution G1, %” value is on record as -37%. For the same compound, the “Relative change in cell cycle distribution G2/M, %” value in the test on CH1/PA‐1 [3] (CH1/PA-1, 1 µM) worked out at 63%. For the same compound, in the test with SW480 [4] (SW480, 0.25 µM), the “Cell cycle distribution G1, %” value is listed as 9 ± 2%; the “Cell cycle distribution G2/M, %” value came out at 65 ± 10%; the “Cell cycle distribution S, %” value was 26 ± 4%; the “Relative change in cell cycle distribution G1, %” value is on record as -39%. In addition, in the test with SW480 [4] (SW480, 0.25 µM), the “Relative change in cell cycle distribution G2/M, %” value was determined as 46% and the “Relative change in cell cycle distribution S, %” value is -7%. In the test on SW480 [4] (SW480, 0.5 µM), the “Cell cycle distribution G1, %” value stood at 3 ± 1%; the “Cell cycle distribution G2/M, %” value is on record as 78 ± 6%; the “Cell cycle distribution S, %” value came out at 19 ± 7%; the “Relative change in cell cycle distribution G1, %” value is -45%. Further, in the test with SW480 [4] (SW480, 0.5 µM), the “Relative change in cell cycle distribution G2/M, %” value is 59% and the “Relative change in cell cycle distribution S, %” value is listed as -14%. In addition, in the test with SW480 [4] (SW480, 1 µM), the “Cell cycle distribution G1, %” value amounted to 6 ± 4%; the “Cell cycle distribution G2/M, %” value was 65 ± 10%; the “Cell cycle distribution S, %” value was found to be 30 ± 15%; the “Relative change in cell cycle distribution G1, %” value was -42%. Further, in the test on SW480 [4] (SW480, 1 µM), the “Relative change in cell cycle distribution G2/M, %” value was determined as 46% and the “Relative change in cell cycle distribution S, %” value is on record as -3%.

“Chlorido[1‐(naphthalene‐1‐yl)‐2‐methyl‐3‐oxo‐κO‐pyridine‐4(1H)‐thionato‐κS](η^5‐1,2,3,4,5‐pentamethylcyclopentadienyl)iridium(III) [Compound 6 d]”: the IC50 in the test with A549 was 2000 ± 400 nM; in the test on CH1/PA‐1 [1], 680 ± 20 nM; in the test with SW480 [2], 800 ± 150 nM.

“Chlorido[1‐phenyl‐2‐methyl‐3‐oxo‐κO‐pyridine‐4(1H)‐thionato‐κS](η^5‐1,2,3,4,5‐pentamethylcyclopentadienyl)iridium(III) [Compound 6 b]”: the IC50 in the test with A549 turned out to be 2200 ± 800 nM; with CH1/PA‐1 [1], 820 ± 50 nM; with SW480 [2], 590 ± 80 nM.
